Drawing on patent US20260200890A1, “ADAR1 INHIBITORS AND METHODS OF USING THE SAME” (AVAMMUNE THERAPEUTICS INC., priority 2022, published 2026), this text covers EC50 for 52 compounds.

Usually EC50 stands for the concentration that produces a half-maximal response.

SMILES strings stand for the structures.

The assay addresses T1, ADAR1 (Homo sapiens, UniProt P55265).
T1 construct: endogenous in cells; host or cells: p110 KO A549 dual cells
T1 sequence (P55265 1-1226): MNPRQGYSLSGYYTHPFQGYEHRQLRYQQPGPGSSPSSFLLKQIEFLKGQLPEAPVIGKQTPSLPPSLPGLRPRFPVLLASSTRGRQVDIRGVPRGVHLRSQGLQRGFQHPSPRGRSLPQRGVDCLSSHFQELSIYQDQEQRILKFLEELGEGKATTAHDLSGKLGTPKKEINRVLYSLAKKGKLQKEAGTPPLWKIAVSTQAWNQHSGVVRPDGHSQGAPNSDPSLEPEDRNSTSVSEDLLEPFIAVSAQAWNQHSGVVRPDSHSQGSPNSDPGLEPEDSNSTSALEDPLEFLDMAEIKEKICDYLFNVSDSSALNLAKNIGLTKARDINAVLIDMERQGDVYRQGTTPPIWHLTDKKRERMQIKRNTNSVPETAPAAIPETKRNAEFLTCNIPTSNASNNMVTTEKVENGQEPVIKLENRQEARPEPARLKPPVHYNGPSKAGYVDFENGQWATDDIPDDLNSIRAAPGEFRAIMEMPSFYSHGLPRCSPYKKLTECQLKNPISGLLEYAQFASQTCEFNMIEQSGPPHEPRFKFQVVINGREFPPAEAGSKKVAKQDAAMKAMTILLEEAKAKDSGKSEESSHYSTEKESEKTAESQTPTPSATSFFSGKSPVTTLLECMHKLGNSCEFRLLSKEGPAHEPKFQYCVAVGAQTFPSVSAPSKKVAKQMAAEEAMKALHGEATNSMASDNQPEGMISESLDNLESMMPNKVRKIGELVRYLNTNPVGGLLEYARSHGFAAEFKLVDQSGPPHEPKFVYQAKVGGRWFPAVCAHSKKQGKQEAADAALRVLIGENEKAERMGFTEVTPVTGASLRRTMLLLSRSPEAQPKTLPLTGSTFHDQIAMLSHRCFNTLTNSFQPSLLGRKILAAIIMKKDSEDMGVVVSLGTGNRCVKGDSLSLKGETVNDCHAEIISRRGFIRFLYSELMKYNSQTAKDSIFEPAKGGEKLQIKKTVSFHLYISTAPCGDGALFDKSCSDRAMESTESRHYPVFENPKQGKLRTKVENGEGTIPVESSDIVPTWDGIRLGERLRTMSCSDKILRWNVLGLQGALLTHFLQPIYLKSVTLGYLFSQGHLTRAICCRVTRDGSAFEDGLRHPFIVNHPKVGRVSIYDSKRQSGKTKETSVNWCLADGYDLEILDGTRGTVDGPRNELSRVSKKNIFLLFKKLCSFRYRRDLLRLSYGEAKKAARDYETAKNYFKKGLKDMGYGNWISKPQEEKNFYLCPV
Description: ADAR1 Inhibition Assay (IFN fold-induction, Quanti-Luc luminescence, p110 KO A549 dual cells). The class given is cell-based. The conditions noted are these: IFN fold-induction vs DMSO, 24 and 48 h. Here is the method: An ADAR1 Inhibition Assay was used to determine the biological activity (EC50) of compounds disclosed herein. 100 μL of p110 KO A549 dual cell suspension in supplemented DMEM (20,000 cells per well) was added into a flat bottom 96 well plate. Next day, post media change, 180 μL of supplemented DMEM was added. 20 μL of test compound or positive control was added to the respective wells (Final concentration of DMSO is 1%). The plate was incubated for 24 and 48 hours at 37° C. in a 5% CO2 incubator. After 24 and 48 h, 20 μL of cell suspension was taken in black well plates and 50 μL of Quanti-Luc was added to each well and luminescence was measured using a microplate reader (Spectra Max). IFN fold-induction was plotted considering DMSO as control using the relative luminescence unit (RLU) values. (Fold induction: Sample RLU/Average DMSO RLU).
With `CS(=O)(=O)Nc1cccc(C(=O)OCC(=O)Nc2cc(-c3ccccc3)[nH]n2)c1` [Compound 265], the 50% effective concentration (EC50) is > 100 µM. Consider `CCOC(=O)c1cc(-c2ccccc2)sc1NC(=O)CNC(=O)c1cc(S(N)(=O)=O)ccc1F` [Compound 56], for which the EC50 was > 100 µM. The result for `COC(=O)c1sccc1NC(=O)COC(=O)c1cccc(NS(C)(=O)=O)c1` [Compound 306] reads > 100 µM. Turning to `CCOC(=O)c1sc(-c2ccccc2)cc1NC(=O)COC(=O)c1cccc(P(=O)(OCC)OCC)c1` [Compound 370], the EC50 was > 100 µM. As for `CCOC(=O)c1cc(-c2ccccc2)sc1NC(=O)CNC(=O)c1cccc(S(=O)(=O)NC)c1` [Compound 11], the EC50 was > 100 µM. Take `CCOC(=O)c1cc(NC(=O)COC(=O)c2cccc(NS(C)(=O)=O)c2)nn1-c1ccccc1` [Compound 347]: the concentration giving a half-maximal response (EC50) was > 100 µM. As to `CS(=O)(=O)Nc1cccc(C(=O)OCC(=O)Nc2nnc(-c3ccccc3)o2)c1` [Compound 185], the EC50 is > 100 µM. For `CCOC(=O)c1cc(-c2ccccc2)sc1NC(=O)CNc1cccc(S(=O)(=O)N(C)C)c1` [Compound 15], the concentration for a half-maximal effect (EC50) was > 100 µM.

Consider `CCCCS(=O)(=O)Nc1cccc(C(=O)OCC(=O)Nc2sc(-c3ccccc3)cc2C(=O)OCC)c1` [Compound 133], for which the concentration giving a half-maximal response (EC50) was > 100 µM. For the compound `CCOC(=O)c1cnc(NC(=O)COC(=O)c2cccc(NS(C)(=O)=O)c2)nc1-c1ccccc1` [Compound 298], the 50% effective concentration (EC50) was > 100 µM. On to `CCOC(=O)c1cc(-c2ccccc2)sc1NC(=O)c1ccc(-c2cccc(NS(C)(=O)=O)c2)o1` [Compound 268], for which the concentration giving a half-maximal response (EC50) was > 100 µM. With `CCOC(=O)c1cc(-c2ccccc2)sc1NC(=O)COC(=O)c1cccc(B(O)O)c1` [Compound 299], the EC50 is > 100 µM.

`CCOC(=O)c1cc(-c2ccc(N(C)C)cc2)sc1NC(=O)COC(=O)c1cccc(NS(C)(=O)=O)c1` [Compound 213]: the half-maximal effective concentration (EC50) was > 100 µM.

On to `CCOC(=O)c1cc(-c2ccccc2)sc1NC(=O)c1cnc(-c2cccc(NS(C)(=O)=O)c2)o1` [Compound 248], for which the EC50 was > 100 µM. The result for `CCOC(=O)c1cc(-c2ccccc2)sc1NC(=O)Cn1cnc2c(N)ncnc21` [Compound 176] reads > 100 µM. For `CCOC(=O)c1cc(-c2ccccc2)sc1NC(=O)CN(C)C(=O)Cc1cccc(NS(C)(=O)=O)c1` [Compound 336], the EC50 was > 100 µM. The result for `CCOC(=O)c1cc(-c2ccccc2)sc1NC(=O)Cn1nncc1-c1cccc(NS(C)(=O)=O)c1` [Compound 182] reads > 100 µM. Regarding `CCOC(=O)c1cc(-c2ccccc2)sc1NC(=O)Cn1cnc2cnc(N)nc21` [Compound 215], the EC50 is > 100 µM. For the compound `CCOC(=O)c1cc(-c2ccccc2)sc1NC(=O)CNC(=O)/C=C/c1cccc(NS(C)(=O)=O)c1` [Compound 377], the EC50 is > 100 µM.

Turning to `CCOC(=O)c1cc(-c2ccccc2)sc1NC(=O)COC(=O)c1cccc(C(N)=O)c1` [Compound 50], the EC50 is > 100 µM.

Consider `COC(=O)c1cc(-c2ccncc2)sc1NC(=O)CNC(=O)c1cccc(S(N)(=O)=O)c1` [Compound 38], for which the EC50 is > 100 µM.

On to `NS(=O)(=O)c1cccc(NC(=O)Cn2nnc(-c3ccccn3)n2)c1` [Compound 32], for which the EC50 was > 100 µM. On to `CCOC(=O)c1cc(C2=CCN(C)CC2)sc1NC(=O)COC(=O)c1cccc(NS(C)(=O)=O)c1` [Compound 278], for which the concentration giving a half-maximal response (EC50) was > 100 µM. As for `CCOC(=O)c1cc(-c2ccccc2)sc1NC(=O)COC(=O)c1cc(S(N)(=O)=O)ccc1C` [Compound 76], the concentration giving a half-maximal response (EC50) was > 100 µM. On to `CCOC(=O)c1cc(-c2ccc(F)cc2)sc1NC(=O)COC(=O)c1cccc(NS(C)(=O)=O)c1` [Compound 108], for which the half-maximal effective concentration (EC50) is ≤ 25 µM. In the case of `CCOC(=O)c1c(NC(=O)COC(=O)c2cccc(NS(C)(=O)=O)c2)sc(N2CCOCC2)c1C` [Compound 287], the EC50 is > 100 µM. For `CCOC(=O)c1c(NC(=O)COC(=O)c2cccc(C#N)c2)sc2c1CCCC2` [Compound 91], the EC50 is > 100 µM. Regarding `CCOC(=O)c1cc(-c2ccccc2)sc1NC(=O)Oc1ccc(NS(C)(=O)=O)cc1` [Compound 267], the EC50 was > 100 µM.

`CCOC(=O)c1cc(-c2ccc(O)cc2)sc1NC(=O)COC(=O)c1cccc(NS(C)(=O)=O)c1` [Compound 218]: the 50% effective concentration (EC50) was > 100 µM.

`CCOC(=O)c1cc(-c2ccccc2)sc1S(=O)(=O)N1CCN(S(C)(=O)=O)CC1` [Compound 307]: the EC50 was > 100 µM. On to `CCOC(=O)c1cc(-c2ccccc2)sc1NC(=O)COC(=O)c1nonc1NS(C)(=O)=O` [Compound 374], for which the EC50 is > 100 µM. In the case of `CCOC(=O)c1cc(-c2ccccc2)sc1NC(=O)Nc1cccc(S(N)(=O)=O)c1` [Compound 21], the EC50 was > 100 µM. As for `COC(=O)c1nc(NC(=O)COC(=O)c2cccc(S(N)(=O)=O)c2)sc1Br` [Compound 9], the EC50 is > 100 µM. As to `CCOC(=O)c1c(-c2ccccc2)noc1NC(=O)COC(=O)c1cccc(NS(C)(=O)=O)c1` [Compound 214], the concentration for a half-maximal effect (EC50) was > 100 µM. The result for `CS(=O)(=O)Nc1cccc(C(=O)OCC(=O)Nc2sc(-c3ccccc3)cc2C(=O)N2CCOCC2)c1` [Compound 123] reads > 100 µM; that for `CCOC(=O)c1cc(-c2ccccc2)sc1NC(=O)Cn1cc(CN(c2cccc(N)c2)S(C)(=O)=O)nn1` [Compound 353], > 100 µM; that for `CCOC(=O)c1cc(-c2ccccc2)sc1NC(=O)CNC(=O)c1cc(S(N)(=O)=O)ccc1C` [Compound 53], > 100 µM.

For the compound `CS(=O)(=O)Nc1cccc(C(=O)OCC(=O)N2CCN(c3ccccc3)C2=S)c1` [Compound 221], the EC50 is > 100 µM. As to `CCOC(=O)c1cc(-c2ccc(F)cc2)sc1NC(=O)COC(=O)c1cccc(S(N)(=O)=O)c1` [Compound 75], the EC50 is ≤ 25 µM.

As to `CCOC(=O)c1cc(-c2ccc(F)cc2)sc1NC(=O)C1CCCN1C(=O)c1cccc(NS(C)(=O)=O)c1` (stereo not shown) [Compound 119], the EC50 is > 100 µM. For `CCOC(=O)c1cc(-c2ccccc2)sc1NC(=O)c1nnc(-c2cccc(NS(C)(=O)=O)c2)s1` [Compound 222], the EC50 is > 100 µM. In the case of `CCOC(=O)c1ccc(-c2ccccc2)nc1NC(=O)COC(=O)c1cccc(NS(C)(=O)=O)c1` [Compound 113], the half-maximal effective concentration (EC50) was > 100 µM. With `CCOC(=O)c1c(NC(=O)COC(=O)c2cccc(S(N)(=O)=O)c2)sc(C)c1C` [Compound 54] the figure was > 100 µM; with `CS(=O)(=O)Nc1cccc(C(=O)OCC(=O)Nc2sc(-c3ccccc3)cc2C(=O)O)c1` [Compound 154], > 100 µM. On to `CCOC(=O)c1cc(-c2ccccc2)sc1NC(=O)C1CCN(Cc2cccc(NS(C)(=O)=O)c2)C1` (stereo not shown) [Compound 184], for which the half-maximal effective concentration (EC50) is > 100 µM. Regarding `CCOC(=O)c1cc(-c2ccccc2)sc1NC(=O)C1CCCN1C(=O)c1cccc(P(=O)(O)O)c1` (stereo not shown) [Compound 404], the EC50 lay in the range of 50 to 100 µM. With `CCOC(=O)c1cc(-c2ccccc2)sc1NC(=O)CNC(=O)c1ccccc1` [Compound 6], the EC50 was > 100 µM. With `CCOC(=O)c1cc(-c2ccccc2)sc1NC(=O)CNc1cccc(S(N)(=O)=O)c1` [Compound 8] the figure was > 100 µM; with `CCOC(=O)c1cc(-c2ccccc2F)sc1NC(=O)COC(=O)c1cccc(NS(C)(=O)=O)c1` [Compound 188], > 100 µM; with `CCOC(=O)c1cc(-c2ccccc2)sc1NC(=O)COC(=O)c1cccc(C(=O)NS(C)(=O)=O)c1` [Compound 256], > 100 µM. Take `Cc1nc(-c2ccccc2)sc1C(=O)NCC(=O)Nc1cccc(S(N)(=O)=O)c1` [Compound 48]: the EC50 was > 100 µM.

Consider `CCOC(=O)c1cc(-c2ccccc2)sc1NC(=O)COC(=O)c1cccc(NS(=O)(=O)C(C)C)c1` [Compound 131], for which the EC50 is > 100 µM.
